US9309222B2, “Phenyl linked quinolinyl modulators of RORγt” (Janssen Pharmaceutica NV, priority 2012, dated 2016)
“And” between values parts separate entries of the source, which are not always exact repeats. Equal entries are not always repeated. Structures can show the parent of a compound that is named as a salt.

Experiments:
[1] = target: T1, human RORγt ligand binding domain (RORγt LBD) (Homo sapiens, UniProt P51449); experiment: RORγt ThermoFluor assay (thermal shift, ligand binding affinity); conditions: estimated from concentration response of thermal shift
T1 construct: His-tag (N); TurboTEV protease cleavage site (ENLYFQG) (N); made in house; host or cells: E. coli (pHIS1, modified pET vector)
T1 sequence (P51449 with tags, fused parts or gaps): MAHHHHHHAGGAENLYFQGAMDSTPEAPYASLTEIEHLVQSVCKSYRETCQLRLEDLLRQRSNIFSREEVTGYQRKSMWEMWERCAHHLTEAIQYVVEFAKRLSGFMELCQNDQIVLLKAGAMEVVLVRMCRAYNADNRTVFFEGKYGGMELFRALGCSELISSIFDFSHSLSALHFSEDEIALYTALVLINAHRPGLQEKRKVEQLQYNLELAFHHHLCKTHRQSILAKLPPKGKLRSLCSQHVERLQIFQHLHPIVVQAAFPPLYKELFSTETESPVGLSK
Description: This approach is applicable to a wide variety of systems, and rigorous in theoretical interpretation through quantitation of equilibrium binding constants (KD).
The shift in the melting point described as a ΔTm is proportional to the concentration and affinity of the ligand.
RORγt ThermoFluor® Assay Construct
Protein and compound solutions are dispensed into black 384-well polypropylene PCR microplates (Abgene) and overlayed with silicone oil (1 μL Fluka, type DC 200) to prevent evaporation.
Fluorescence was measured by continuous illumination with UV light (Hamamatsu LC6) supplied via fiber optic and filtered through a band-pass filter (380-400 nm; >6 OD cutoff). Fluorescence emission of the entire 384-well plate was detected by measuring light intensity using a CCD camera (Sensys, Roper Scientific) filtered to detect 500±25 nm, resulting in simultaneous and independent readings of all 384 wells. Images were collected at each temperature, and the sum of the pixel intensity in a given area of the assay plate was recorded versus temperature. Reference wells contained RORγt without compounds, and the assay conditions were as follows: • 0.065 mg/mL RORγt • 60 μM 1,8-ANS • 100 mM Hepes, pH 7.0 • 10 mM NaCl • 2.5 mM GSH • 0.002% Tween-20
Project compounds were arranged in a pre-dosed mother plate (Greiner Bio-one) wherein compounds are serially diluted in 100% DMSO by 1:2 from a high concentration of 10 mM over 12 columns within a series (column 12 is a reference well containing DMSO, no compound).
The compounds were robotically dispensed directly into assay plates (1×=[…]) using a Hummingbird capillary liquid handling instrument (Digilab). Following compound dispense, protein and dye in buffer was added to achieve the final assay volume of 3 μL, followed by 1 μL of silicone oil.

human RORγt LBD = target: T2, human RORγt LBD (Homo sapiens, UniProt P51449); experiment: RORγt reporter assay (GAL4-RORγt LBD luciferase in HEK293T cells); format: cell-based; conditions: for IC50 / RORγt reporter Assay, % inhibition @ 6 μM: HEK293T cells; for IC50: 24 hours compound treatment; for inhibition at 6 µM: HEK-293T, read-out: RORγt reporter Assay, % inhibition @ 6 μM, HEK293T cells, 6 μM compound; for RORγt reporter Assay, % inhibition @ 6 μM: 6 μM compound
T2 construct: expressed in transfected cells
T2 sequence (P51449 258-518): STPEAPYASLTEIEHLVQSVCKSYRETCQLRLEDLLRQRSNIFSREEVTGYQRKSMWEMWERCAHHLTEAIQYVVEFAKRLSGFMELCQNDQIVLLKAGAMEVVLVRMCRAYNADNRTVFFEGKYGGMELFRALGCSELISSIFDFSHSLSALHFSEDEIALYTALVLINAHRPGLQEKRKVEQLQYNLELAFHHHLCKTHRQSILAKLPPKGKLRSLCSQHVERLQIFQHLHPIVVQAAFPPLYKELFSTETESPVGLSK
Excerpt: A reporter assay was used to test functional activity of RORγt modulatory compounds on transcriptional activation driven by the RORγt LBD. Cells used in the assay were co-transfected with two constructs. The first construct, pBIND-RORγt LBD, contained the wild type human RORγt LBD fused to the DNA binding domain of the GAL4 protein. The second construct, pGL4.31 (Promega Cat no. C935A), contained multiple GAL4 responsive DNA elements upstream of firefly luciferase. […] The mutant construct was called pBIND-RORγt-AF2.
The pBIND vector contains the GAL4 DNA Binding Domain (GAL4 DBD) and the renilla luciferase gene under control of the SV40 promoter. Renilla luciferase expression serves as a control for transfection efficiency and cell viability.
The reporter assay was performed by transiently transfecting HEK293T cells with 5 ng of pBIND-RORγt LBD or pBIND-RORγt LBD-AF2 and 5 μg pGL4.31 (Promega Cat no. C935A) using Fugene 6 (Invitrogen Cat no. E2691) at a 1:6 ratio of DNA:Fugene 6 in a T-75 flask in which cells were at least 80% confluent. Twenty four hours after bulk transfection, cells were plated into 96-well plates at 50,000 cells/well in phenol-red free DMEM containing 5% Lipid Reduced FCS and Pen/Strep. Six hours after plating, cells were treated with compounds for 24 hours. Media was removed and cells were lysed with 50 μL 1× Glo Lysis Buffer (Promega). Dual Glo Luciferase Reagent (50 μL/well) was then added and firefly luciferase luminescence was read on an Envision after a ten minute incubation. Finally, Stop and Glo reagent (50 μL/well) was added and renilla luciferase luminescence was read on an Envision after a ten minute incubation. To calculate the effect of compounds on RORγt activity, the ratio of firefly to renilla luciferase was determined and plotted against compound concentration. Agonist compounds increase RORγt-driven luciferase expression, and antagonist or inverse agonist compounds decrease luciferase expression.

Kd [1] [nM] | IC50 (human RORγt LBD) | inhibition at 6 µM (human RORγt LBD) [%] | RORγt reporter Assay, % inhibition @ 6 μM (human RORγt LBD) [%] | Compound
16 | 140 nM | 101 | – | CC(=O)N1CCC(C(O)(c2ccc3nc(C(F)(F)F)c(-c4ccccc4)c(C(F)(F)F)c3c2)c2cncn2C)CC1 (racemic) [Example 181a, 1-(4-(Hydroxy(1-methyl-1H-imidazol-5-yl)(3-phenyl-2,4-bis(trifluoromethyl)quinolin-6-yl)methyl)piperidin-1-yl)ethanone]
1200 | 1400 nM | 87 | – | Cn1cncc1C(O)(c1ccc(Cl)cc1)c1ccc2nc(Cl)c(-c3ccccc3)c(Cl)c2c1F (stereo not drawn) [Example 163, (4-Chlorophenyl)(2,4-dichloro-5-fluoro-3-phenylquinolin-6-yl)(1-methyl-1H-imidazol-5-yl)methanol•TFA]
1300 | 2300 nM | 75 | – | CCN(CC)c1nc2ccc(C(O)(c3cccnc3)c3cccc(Cl)c3)cc2c(OC)c1-c1ccccc1 (stereo not drawn) [Example 106, (3-Chlorophenyl)[2-(diethylamino)-4-methoxy-3-phenylquinolin-6-yl]pyridin-3-ylmethanol•TFA]
53 | 580 nM | 100 | – | CCc1nc2ccc(C(O)(c3ccncc3)c3cncn3C)cc2c(CC)c1-c1ccccc1 (stereo not drawn) [Example 97, (2,4-Diethyl-3-phenylquinolin-6-yl)(1-methyl-1H-imidazol-5-yl)pyridin-4-ylmethanol•TFA]
2500 | 3000 nM | 99 | – | Cc1cc(C(O)(c2ccc(C(F)(F)F)nc2)c2cncn2C)cc2c(C#N)c(-c3ccc(F)cc3)c(C#N)nc12 (single isomer, unassigned) [Example 184b, 3-(4-Fluorophenyl)-6-(hydroxy(1-methyl-1H-imidazol-5-yl)(6-(trifluoromethyl)pyridin-3-yl)methyl)-8-methylquinoline-2,4-dicarbonitrile]
21000 | 610 nM | – | 72 | COc1nc2c(C)cc(C(O)(c3ccc(F)cc3)c3cncn3C)cc2c(Cl)c1-c1cccc(F)c1 (single isomer, unassigned) [Example 178b, (4-Chloro-3-(3-fluorophenyl)-2-methoxy-8-methylquinolin-6-yl)(4-fluorophenyl)(1-methyl-1H-imidazol-5-yl)methanol]
68 | 110 nM | 96 | – | Cn1cncc1C(O)(c1ccncc1)c1cc(F)c2nc(Cl)c(-c3ccccc3)c(Cl)c2c1 (stereo not drawn) [Example 155, (2,4-Dichloro-8-fluoro-3-phenylquinolin-6-yl)(1-methyl-1H-imidazol-5-yl)(pyridin-4-yl)methanol•TFA]
21 | 220 nM | 97 | – | Cn1cncc1C(O)(c1ccnnc1)c1ccc2nc(Cl)c(-c3ccccc3)c(Cl)c2c1 (stereo not drawn) [Example 126, (2,4-Dichloro-3-phenylquinolin-6-yl)(1-methyl-1H-imidazol-5-yl)(pyridazin-4-yl)methanol]
3500 | 1500 nM | – | 75 | Cn1cncc1C(O)(c1ccc(Cl)cc1)c1ccc2nc(Cl)c(-c3ccccc3Cl)c(Cl)c2c1 (single isomer, unassigned) [Example 153d, (4-Chlorophenyl)(2,4-dichloro-3-(2-chlorophenyl)quinolin-6-yl)(1-methyl-1H-imidazol-5-yl)methanol]
2200 | ~6000 nM | 70 | – | Cn1ccnc1C(O)(c1ccc2nc(Cl)c(-c3ccccc3)c(Cl)c2c1)c1cnccn1 (stereo not drawn) [Example 123, (2,4-Dichloro-3-phenylquinolin-6-yl)(1-methyl-1H-imidazol-2-yl)(pyrazin-2-yl)methanol]
640 | 1000 nM and ~2000 nM | 77 | – | OC(c1ccc(C(F)(F)F)nc1)(c1cccc(Cl)c1)c1ccc2nc(Cl)c(-c3ccccc3)c(Cl)c2c1 (stereo not drawn) [Example 111, (3-Chlorophenyl)(2,4-dichloro-3-phenylquinolin-6-yl)(6-(trifluoromethyl)pyridin-3-yl)methanol]

Continued, molecule first:

Compound | Kd [1] [nM] | IC50 (human RORγt LBD) | inhibition at 6 µM (human RORγt LBD) [%] | RORγt reporter Assay, % inhibition @ 6 μM (human RORγt LBD) [%]
COCOc1ccc(C(O)(c2cccnc2)c2ccc3nc(Cl)c(-c4ccccc4)c(Cl)c3c2)cc1 (stereo not drawn) [Example 23, (2,4-Dichloro-3-phenylquinolin-6-yl)[4-(methoxymethoxy)phenyl]pyridin-3-ylmethanol] | 230 | 800 nM | 89 | –
CN(C)c1c(-c2ccccc2)c(Cl)nc2ccc(C(O)(c3cccnc3)c3ccccc3Cl)cc12 (stereo not drawn) [Example 45, [2-Chloro-4-(dimethylamino)-3-phenylquinolin-6-yl](2-chlorophenyl)pyridin-3-ylmethanol•TFA] | 2900 | 1600 nM | 75 | –
CN(C)c1c(-c2ccccc2)c(Cl)nc2ccc(C(O)(c3ccc(Cl)cc3)c3cccnc3)cc12 (stereo not drawn) [Example 33, [2-Chloro-4-(dimethylamino)-3-phenylquinolin-6-yl](4-chlorophenyl)pyridin-3-ylmethanol•TFA] | 3300 | 2000 nM | 78 | –
COc1nc2ccc(C(O)(c3ccc(Cl)cc3)c3cncn3C)cc2cc1-c1ccccc1 (stereo not drawn) [Example 9] | 7100 | 6100 nM | 70 | –
OC(c1cccnc1)(c1cccc(Cl)c1)c1ccc2ncc(-c3ccccc3)c(Cl)c2c1 (stereo not drawn) [Example 52, (3-Chlorophenyl)(4-chloro-3-phenylquinolin-6-yl)pyridin-3-ylmethanol] | 1300 | ~3000 nM | 80 | –
COc1ccc(C(O)(c2cccnc2)c2ccc3ncc(-c4ccccc4)c(Cl)c3c2)cc1 (stereo not drawn) [Example 59, (4-Chloro-3-phenylquinolin-6-yl)(4-methoxyphenyl)pyridin-3-ylmethanol] | 4400 | ~6000 nM | 37 | –
OC(c1cccnc1)(c1ccc2nc(Cl)c(-c3ccccc3)c(Cl)c2c1)c1ccccc1Cl (stereo not drawn) [Example 28, (2-Chlorophenyl)(2,4-dichloro-3-phenylquinolin-6-yl)pyridin-3-ylmethanol•TFA] | 230 | ~200 nM | 99 | –
CCOc1nc2ccc(C(O)(c3ccncc3)c3cncn3C)cc2c(OCC)c1-c1ccccc1 (stereo not drawn) [Example 82, (2,4-Diethoxy-3-phenylquinolin-6-yl)(1-methyl-1H-imidazol-5-yl)pyridin-4-ylmethanol•TFA] | 560 | ~4000 nM | 71 | –
